Legend:
E. coli = experiment: Food contact sanitizing efficacy (AOAC Method 960.09); type: cell-based; conditions: pH adjusted to 2.1 with phosphoric acid, 30 seconds exposure
Method: (§1) Additional testing to confirm food contact sanitizing efficacy (AOAC Method 960.09) comparing three AEC surfactants was conducted where the surfactants were diluted in 500 ppm synthetic hard water and pH adjusted to 2.1 with phosphoric acid. The evaluated AEC surfactants are further described above in Table 2.

S. aureus = experiment: as above; type: cell-based; conditions: pH adjusted to 2.1 with phosphoric acid, 30 seconds exposure
Method: as §1

[1] = 500 ppm surfactant in 500 ppm synthetic hard water
[2] = 750 ppm surfactant in 500 ppm synthetic hard water
[3] = 1000 ppm surfactant in 500 ppm synthetic hard water

| Substance | Log reduction E. coli (E. coli; [1]) [log] | Log reduction E. coli (E. coli; [2]) [log] | Log reduction E. coli (E. coli; [3]) [log] | Log reduction S. aureus (S. aureus; [1]) [log] | Log reduction S. aureus (S. aureus; [2]) [log] | Log reduction S. aureus (S. aureus; [3]) [log] |
| --- | --- | --- | --- | --- | --- | --- |
| Capryleth-4 Carboxylic acid | >7.59 | >7.59 | >7.59 | >7.34 | >7.34 | >7.34 |
| Capryleth-6 Carboxylic acid | 1.98 | 3.44 | >7.59 | >7.34 | >7.34 | >7.34 |
| Capryleth-9 Carboxylic acid | <1.19 | <1.19 | <1.19 | 5.31 | >7.34 | >7.34 |
